{"source": "patent US20090170871A1", "about": "“IL-8 Receptor Antagonists” (SMITHKLINE BEECHAM CORPORATION, priority 2006, published 2009)", "tested_on": "whole blood neutrophil CD11b expression (CXCL2-stimulated)", "test": "Neutrophil CD11b Stimulation Following Oral Dosing to Rats", "assay_type": "in vivo, Lewis rats", "experimental": "Rat whole blood, 3 ml, was drawn by cardiac puncture in a syringe containing 100 μl of 0.25 M EDTA (GIBCO, Grand Island, N.Y.). Rat CXCL2 (PeproTech, Rocky Hill, N.J.) stock was made by reconstitution in Kreb's/0.1% BSA (KBSA) at 10 μM. The stock was diluted to “11×” the maximum concentration used in DPBS (GIBCO) and serially diluted in KBSA/DPBS vehicle. […] The tubes were incubated for 30 minutes in a 37° C. bath, with gentle hand agitation every 10 minutes. The samples were then placed on ice for 10 minutes followed by addition of 10 μl of anti-rat-CD11b-FITC or FITC-labeled mouse IgG2a isotype control (both Antigenix America, Huntington Station, N.Y.) and incubated for 30 minutes on ice. FACS Lysing Solution (Becton Dickinson, San Jose, Calif.), 1 ml of 1×, was added with immediate vigorous vortexing, followed by additional vortex after the solution was added to the last sample. Samples were incubated for 10 minutes at room temperature and the leukocytes were pelleted at ˜300×g and washed with DPBS. Cells were resuspended in 650 μl of 1% paraformaldahyde. […] FL1 (green FITC fluorescence, directly relating to CD11b content) of this population was then measured as mean channel fluorescence by analysis with CellQuest software."}
{"smiles": "Cc1ccc(S(=O)(=O)O)cc1.O=C(Nc1ccc(Cl)c(S(=O)(=O)N2CCNCC2)c1O)Nc1cccc(F)c1Cl", "note": "[present compound, N-[4-chloro-2-hydroxy-3-(piperazine-1-sulfonyl)phenyl]-N′-(2-chloro-3-fluorophenyl)urea p-toluenesulfonate]", "values": [{"measurement": "EC50 of the CXCL2 concentration response curve (CD11b expression) in treated rats", "setting": "oral 10 mg/kg, Lewis rats, vehicle-treated rats 4.7 nM (1.9-7.4; 95% C.I.), treated 95% C.I. 10.0-14.7, p<0.001, n=6 per group", "result": 12.3, "unit": "nM"}, {"measurement": "inhibition of whole blood neutrophil CD11b expression", "setting": "oral dosing to Lewis rats at 10 mg/kg, blood drawn one hour later", "result": "active"}]}
